Article PMC12973313 (Chemical Science, 2026)
Converted amounts (≈) assume the structure as drawn. “And” between values parts separate entries of the source, which are not always exact repeats. Equal values may be shown once. Read-outs that look alike come from different tables or passages of the source.

Experiments:
[1] = Quantitative 1H NMR, DMSO-d6 1% DCM (self-association); type: physicochemical; settings: 112 mM, 298 K, proportion NMR silent
Text: Initially, quantitative (Q) ^1H NMR spectroscopy experiments were undertaken in DMSO-d6 1% DCM, using the DCM as an internal standard to identify the presence of either low or high order SSA self-associated aggregates. Here, low-order SSA self-associated aggregates are defined as those directly observable using traditional solution state ^1H NMR spectroscopy such as the formation of hydrogen bonded anionic dimers. To determine the presence of low or high-order SSA aggregates, signals corresponding to the anionic or cationic component of the SSA are integrated against those of the internal DCM standard.

[2] = 1H NMR DOSY, DMSO-d6 0.5% H2O; type: physicochemical; settings: 298 K
[3] = 1H NMR dilution study, self-association constants (Bindfit v0.5); type: physicochemical; settings: 298 K
Protocol: This enables the quantification of parameters such as SSA anion dimerization constant which we have shown to correlate with critical aggregation concentration (CAC) values obtained from aqueous solutions of that same SSA.[30]
Figure S40 – Graph illustrating the 1H NMR down-field change in chemical shift of urea NH
resonances with increasing concentration of 9 in DMSO-d6/0.5 % H2O (298 K).
Self-association constant calculation: values were calculated from data gathered from both
NH’s and fitted to the Cooperative Equal K (CoEK) and Equal K/ dimerization binding models.
Equal K/Dimerization model:
Table S8- The self-association constants (Ke and Kdim) calculated for 3, 5, 7 and 9 in DMSO-d6/
0.5 % H2O solution at 298 K. Constants were obtained for the EK and CoEK models by fitting
1H NMR self-association data to Bindfit v0.5.
EK model (M-1) CoEK model (M-1)
Compound Ke Error Kdim Error Ke Error Kdim Error ⍴ Error
(± %) (± %) (± %) (± %) (± %)
(1 picture or pasted object on this page, not shown here)

[4] = Quantitative 1H NMR, D2O 5% EtOH (self-association); type: physicochemical; settings: 5.56 mM, 298 K, proportion NMR silent
Text: However, when supplied as a 1 : 1 enantiomeric mixture, although the trend in increased incorporation of 7 + 9 over 3 + 5 into the higher order aggregate structure was retained from previous observations in polar organic solvents, the total proportion of SSA incorporated into these higher order structures was approximately 20% lower (from ≈ 50% to ≈ 30%) for the 1 : 1 enantiomeric mixture of 3 + 5 over the homogenous solution of those same SSAs.

[5] = Dynamic light scattering, H2O 5% EtOH; type: physicochemical; settings: 5.56 mM, 298 K, after annealing
Text: The size and stability of those self-associated structures present were confirmed through a combination of dynamic light scattering (DLS) and zeta potential measurements respectively (Table 2). […] Therefore, the presence of the alkyl/aromatic R-groups within the amino acid appended SSA are confirmed to increase higher order self-associated aggregate stability.
Table S9 - The peak maxima and polydispersity indices obtained for 1, 3, 5, 7, 9, and 1:1 enantiomeric mixtures of 3 + 5 and 7 + 9 obtained at 5.56 mM in H2O/5 % EtOH. An annealing process was applied in which the samples were heated to approximately 313 K before being cooled down to a measurement temperature of 298 K. The errors given are the standard error of the average.
Compound Repeat Peak maxima (nm) Polydispersity index

S. aureus ATCC 9144 = test: MIC assay; type: cell-based, Staphylococcus aureus; settings: Staphylococcus aureus
Protocol: (§1) Next generation SSAs 3, 5, 7, and 9 were specifically designed to increase the activity of SSAs against both drug susceptible and resistant S. aureus and ovarian cancer cells. […] These strains include: (i) USA300, a common clinically relevant, methicillin resistant strain;[47] […]
(§2) Section S3: Biological methods […]
(§3) Preparation of bacterial plates : Sterile TSB agar plates were streaked using the desired […]
(§4) Preparation of inoculum: An initial culture was made up by inoculating TSB (5 mL) with 3 single colonies of the desired bacteria under sterile conditions and incubated at 37 °C overnight. The optical density at 600 nm (OD 600) was adjusted using sterile distilled H 2O (dH2O) to equal ~1 x 10^6 bacteria/mL.
(§5) Preparation of 96 -well microplate : A solution of each compound in H2O/5 % EtOH was made […]
(§6) The compound solution (200 […]
(§7) µL) was added to and diluted 50:50 down the plate. The bacterial suspension (100 µL) was dispensed into each well under sterile conditions. […]

S. aureus NCTC 13616 = test: MIC assay; type: cell-based, Staphylococcus aureus; settings: Staphylococcus aureus
Protocol: as §1, §2, §3, §4, §5, §6, §7

S. aureus USA300 = test: MIC assay; type: cell-based; settings: Staphylococcus aureus
Protocol: as §1, §2, §3, §4, §5, §6, §7

S. aureus 1199B = test: microbe, parasite or virus in culture; type: cell-based, Staphylococcus aureus; settings: Staphylococcus aureus, 1199B
Protocol: as §1, §2, §3, §4, §5, §6, §7

[6] = tested on: Galleria mellonella larvae; test: G. mellonella toxicity assay; type: in vivo; settings: out of 10; 10 µL of 5 mM in H2O/EtOH 19:1, 37 °C
Protocol: Finally, we gauged the toxicity of SSAs 1, 3, 5, 7, and 9 as either homogenous solutions or heterogenous (1 : 1) enantiomeric mixtures towards multicellular organisms which have an intrinsic immune system.[66] Here, Galleria mellonella larvae were injected with 10 µL of SSA (5 mM) in a distilled H2O/EtOH 19 : 1 solution and then incubated at 37 °C for a maximum of five days and the number of surviving larvae recorded each day. […]. […]
G. mellonella treatment assay: G. mellonella larvae were purchased from Livefood UK Ltd.
(Rooks Bridge, UK) and maintained on wood chips in the dark at 15 °C until use. Galleria
larvae were injected with 10 µL of compound in H2O/5 % EtOH, incubated at 37 °C for 5 days
and the deaths counted. Groups of 10 Galleria were injected per compound. […]

[7] = equal K/dimerization model, DMSO-d6 0.5% H2O

SMILES: O=C(Nc1ccc(C(F)(F)F)cc1)N[C@H](Cc1ccccc1)C(=O)O [SSA 9]
- Q NMR (%) SSA anion [1]: 0%
- Q NMR (%) SSA cation [1]: 0%
- dH (nm), hydrodynamic diameter, anionic component ([2]; 1H NMR DOSY, DMSO-d6 0.5% H2O, 112 mM): 1.67 nm and 1.7 nm
- Hydrodynamic diameter (nm) Cationic component ([2]; DMSO-d6/0.5 % H2O): 1.24 nm
- Kdim, CoEK model ([3]; DMSO-d6/0.5 % H2O): 8.92 M⁻¹
- Ke, CoEK model ([3]; DMSO-d6/0.5 % H2O): 17.84 M⁻¹
- Ke, EK model ([3]; DMSO-d6/0.5 % H2O): 45.90 M⁻¹
- ρ, CoEK model ([3]; DMSO-d6/0.5 % H2O): 2.62
- Kdim [3, 7]: 22.95 M⁻¹
- Kdim (M^-1) [3, 7]: 23 (±2.5%) M^−1
- Q NMR (%) SSA anion [4]: 58%
- Q NMR (%) SSA cation [4]: 53%
- dH (nm), DLS intensity distribution peak maxima [5]: 180.99 (± 53.12) nm and 181 nm
- MIC (S. aureus ATCC 9144; ATCC9144, 15 h, total molecular concentration, after 900 min, read-out: MIC ATCC 9144): 0.174 mM (≈ 61.3 µg/mL)
- MIC (S. aureus ATCC 9144; ATCC9144, lowest concentration with no visible growth, read-out: MIC (mM) S. aureus 9144): 0.174 mM (≈ 61.3 µg/mL)
- MIC (S. aureus NCTC 13616; NCTC13616, 15 h, total molecular concentration, after 900 min, read-out: MIC NCTC 13616): 0.087 mM (≈ 30.7 µg/mL)
- MIC (S. aureus NCTC 13616; NCTC13616, lowest concentration with no visible growth, read-out: MIC (mM) S. aureus 13616): 0.087 mM (≈ 30.7 µg/mL)
- MIC (S. aureus USA300; USA300, 15 h, total molecular concentration, after 900 min, read-out: MIC USA300): 0.087 mM (≈ 30.7 µg/mL)
- MIC (S. aureus USA300; USA300, lowest concentration with no visible growth, read-out: MIC (mM) S. aureus USA 300): 0.087 mM (≈ 30.7 µg/mL)
- MIC (S. aureus 1199B; 15 h, read-out: MIC 1199B, total molecular concentration, after 900 min): 0.174 mM (≈ 61.3 µg/mL)
- MIC (S. aureus 1199B; read-out: MIC (mM) S. aureus 1199B, lowest concentration with no visible growth): 0.174 mM (≈ 61.3 µg/mL)
- Galleria moth larvae survived Day 1 [6]: 9
- Galleria moth larvae survived Day 2 [6]: 9
- Galleria moth larvae survived Day 3 [6]: 9
- Galleria moth larvae survived Day 4 [6]: 7
- Galleria moth larvae survived Day 5 [6]: 5
